The structures appear in SMILES notation. Structures can show the parent of a compound that is named as a salt. Where two headings read alike, the source gives them in different places. Some results are limits rather than exact numbers.

The record followed here is patent US11174252B2, “Heterocyclic compounds as kinase inhibitors” (priority 2018, dated 2021).

Assay [1] concerns the target CDK6 (Homo sapiens (Human), UniProt Q00534). Nature of the assay: biochemical. Format: biochemical.
For assay [2], the target named is CDK4 (Homo sapiens (Human), UniProt P11802). Nature of the assay: In vitro kinase inhibition, luminescence (ADP-Glo) with retinoblastoma substrate. The assay is classed as biochemical.
For assay [3], the system named is MCF-7. The assay can be described thus: Cancer cell proliferation assay, single agent. Format: cell-based. The settings on record: Homo sapiens.
Assay [4] addresses FMS kinase (Homo sapiens (Human), UniProt P07333). Nature of the assay: LanthaScreen kinase assay (ATP, fluorescent-PolyGT substrate, TR-FRET). The assay is classed as biochemical.
Setting [5] is: MCF7, read-out: IC50 (nM) MCF-7.
[6] abbreviates: MCF7, MCF-7 cells, treated for 24-168 hours, read-out: IC50 (nM) MCF-7.

Chain of FMS kinase (P07333 20-972): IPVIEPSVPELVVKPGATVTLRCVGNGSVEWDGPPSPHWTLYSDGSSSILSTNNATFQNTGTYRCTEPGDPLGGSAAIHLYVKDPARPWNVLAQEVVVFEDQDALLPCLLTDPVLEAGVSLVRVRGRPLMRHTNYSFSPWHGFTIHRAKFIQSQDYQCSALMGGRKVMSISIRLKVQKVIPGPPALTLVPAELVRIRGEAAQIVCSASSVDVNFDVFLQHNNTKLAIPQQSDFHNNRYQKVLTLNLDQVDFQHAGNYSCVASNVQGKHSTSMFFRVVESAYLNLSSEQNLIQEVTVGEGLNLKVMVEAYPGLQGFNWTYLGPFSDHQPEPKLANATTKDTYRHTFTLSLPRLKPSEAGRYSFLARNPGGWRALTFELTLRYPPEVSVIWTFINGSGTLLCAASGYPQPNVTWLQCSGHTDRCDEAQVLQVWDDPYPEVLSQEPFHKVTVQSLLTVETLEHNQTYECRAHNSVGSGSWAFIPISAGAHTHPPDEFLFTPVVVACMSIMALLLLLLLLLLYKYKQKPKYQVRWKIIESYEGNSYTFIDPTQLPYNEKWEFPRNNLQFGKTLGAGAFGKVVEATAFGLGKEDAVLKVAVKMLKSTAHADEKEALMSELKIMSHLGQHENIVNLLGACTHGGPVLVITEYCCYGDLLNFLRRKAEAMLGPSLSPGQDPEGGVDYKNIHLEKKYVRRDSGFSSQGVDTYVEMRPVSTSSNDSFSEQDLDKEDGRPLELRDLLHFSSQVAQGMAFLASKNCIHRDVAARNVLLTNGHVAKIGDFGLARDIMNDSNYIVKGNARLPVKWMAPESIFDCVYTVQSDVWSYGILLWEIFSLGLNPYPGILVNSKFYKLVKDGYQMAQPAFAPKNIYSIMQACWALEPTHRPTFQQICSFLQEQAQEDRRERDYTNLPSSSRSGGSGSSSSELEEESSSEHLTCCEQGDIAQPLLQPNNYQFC
Chain of CDK4 (P11802 whole entry): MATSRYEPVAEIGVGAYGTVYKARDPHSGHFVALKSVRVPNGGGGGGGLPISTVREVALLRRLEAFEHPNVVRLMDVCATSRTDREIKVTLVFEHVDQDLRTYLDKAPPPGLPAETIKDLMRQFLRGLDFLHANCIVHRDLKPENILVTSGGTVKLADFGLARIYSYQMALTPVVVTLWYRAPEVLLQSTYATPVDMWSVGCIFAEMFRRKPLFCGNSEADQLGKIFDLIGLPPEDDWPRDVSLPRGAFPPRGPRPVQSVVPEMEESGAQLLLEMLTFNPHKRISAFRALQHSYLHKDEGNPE
Chain of CDK4 (P24385 whole entry partner): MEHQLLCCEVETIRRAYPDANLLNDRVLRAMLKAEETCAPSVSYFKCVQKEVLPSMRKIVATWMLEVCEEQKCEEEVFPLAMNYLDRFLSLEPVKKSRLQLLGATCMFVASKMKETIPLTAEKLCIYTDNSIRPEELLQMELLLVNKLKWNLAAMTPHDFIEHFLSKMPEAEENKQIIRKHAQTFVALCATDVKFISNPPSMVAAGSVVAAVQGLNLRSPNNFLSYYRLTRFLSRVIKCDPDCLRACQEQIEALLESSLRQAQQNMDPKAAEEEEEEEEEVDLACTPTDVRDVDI

For `COc1nc(Nc2ncc(F)c(-c3cc(F)c4c(c3)N(C(C)C)CCO4)n2)ccc1C1CCN(C)CC1` [Compound 844, 5-fluoro-4-(8-fluoro-4-isopropyl-3,4-dihydro-2H-benzo[b][1,4]oxazin-6-yl)-N-(6-methoxy-5-(1-methylpiperidin-4-yl)pyridin-2-yl)pyrimidin-2-amine], the IC50 in assay [1] was 0.035 µM; in assay [2] it was 0.031 µM. With `CC(C)N1CCOc2c(F)cc(-c3nc(Nc4ccc5c(c4)CNCC5)ncc3F)cc21` [Compound 16, N-(5-fluoro-4-(8-fluoro-4-isopropyl-3,4-dihydro-2H-benzo[b][1,4]oxazin-6-yl)pyrimidin-2-yl)-1,2,3,4-tetrahydroisoquinolin-7-amine], the half-maximal inhibitory concentration (IC50) in assay [3] (setting [5]) worked out at 3.8 nM; in assay [4], 0.0025 µM. For `COc1cc(Nc2ncc(F)c(-c3cc(F)c4c(c3)N(C(C)C)CCO4)n2)ccc1N1CCNCC1` [Compound 29, 5-fluoro-4-(8-fluoro-4-isopropyl-3,4-dihydro-2H-benzo[b][1,4]oxazin-6-yl)-N-(3-methoxy-4-(piperazin-1-yl)phenyl)pyrimidin-2-amine], in that order: 48 nM and 0.0025 µM. Regarding `CC(C)N1CCOc2c(F)cc(-c3nc(Nc4ccc(N5CCC(N(C)C)CC5)c(C(F)(F)F)c4)ncc3F)cc21` [Compound 178, N-(4-(4-(dimethylamino)piperidin-1-yl)-3-(trifluoromethyl)phenyl)-5-fluoro-4-(8-fluoro-4-isopropyl-3,4-dihydro-2H-benzo[b][1,4]oxazin-6-yl)pyrimidin-2-amine], the values for the IC50 in assay [3] (setting [6]) and in assay [4] were 210 nM and 0.005 µM, respectively.

Regarding `CC(C)N1CCOc2c(F)cc(-c3nc(Nc4ccc(N5CCN(C)CC5)cc4)ncc3F)cc21` [Compound 6, 5-fluoro-4-(8-fluoro-4-isopropyl-3,4-dihydro-2H-benzo[b][1,4]oxazin-6-yl)-N-(4-(4-methylpiperazin-1-yl)phenyl)pyrimidin-2-amine], the 50% inhibitory concentration (IC50) in assay [3] (setting [6]) came out at 30 nM; in assay [4], 0.082 µM. In turn, `CC(C)N1CCOc2c(F)cc(-c3nc(Nc4cc(N5CCNCC5)ccn4)ncc3F)cc21` [Compound 5, 5-fluoro-4-(8-fluoro-4-isopropyl-3,4-dihydro-2H-benzo[b][1,4]oxazin-6-yl)-N-(4-(piperazin-1-yl)pyridin-2-yl)pyrimidin-2-amine] yielded an IC50 in assay [4] of more than 3.63 µM. With `CC(C)N1CCOc2c(F)cc(-c3nc(Nc4ccc5c(c4)CC(N(C)C)C5)ncc3F)cc21` (centres unmarked) [Compound 37, N^5-(5-fluoro-4-(8-fluoro-4-isopropyl-3,4-dihydro-2H-benzo[b][1,4]oxazin-6-yl)pyrimidin-2-yl)-N^2,N^2-dimethyl-2,3-dihydro-1H-indene-2,5-diamine], the half-inhibitory concentration (IC50) in assay [3] (setting [5]) was less than 14 nM.

For the molecule `CC(C)N1CCOc2c(F)cc(-c3nc(Nc4ccc(N5CCN(C)CC5)c(F)c4)ncc3F)cc21` [Compound 14, 5-fluoro-N-(3-fluoro-4-(4-methylpiperazin-1-yl)phenyl)-4-(8-fluoro-4-isopropyl-3,4-dihydro-2H-benzo[b][1,4]oxazin-6-yl) pyrimidin-2-amine], the IC50 in assay [3] (setting [5]) was 11 nM; in assay [4] it was 0.049 µM.

On to `CCCc1nc(Nc2ncc(F)c(-c3cc(F)c4c(c3)N(C(C)C)CCO4)n2)ccc1C1CCN(C)CC1` [Compound 848, 5-fluoro-4-(8-fluoro-4-isopropyl-3,4-dihydro-2H-benzo[b][1,4]oxazin-6-yl)-N-(5-(1-methylpiperidin-4-yl)-6-propylpyridin-2-yl)pyrimidin-2-amine], for which the figures for the IC50 in assay [1] and in assay [2] were 0.11 µM and 0.044 µM, respectively. For `CC(C)N1CCOc2c(F)cc(-c3nc(Nc4ccc(C5CCN(C)CC5)c(C#N)n4)ncc3F)cc21` [Compound 845, 6-((5-fluoro-4-(8-fluoro-4-isopropyl-3,4-dihydro-2H-benzo[b][1,4]oxazin-6-yl)pyrimidin-2-yl)amino)-3-(1-methylpiperidin-4-yl)picolinonitrile], in that order: 0.029 µM and 0.023 µM. As to `CC(C)N1CCOc2c(F)cc(-c3nc(Nc4cc(F)c(N5CCNCC5)cc4F)ncc3F)cc21` [Compound 31, N-(2,5-difluoro-4-(piperazin-1-yl)phenyl)-5-fluoro-4-(8-fluoro-4-isopropyl-3,4-dihydro-2H-benzo[b][1,4]oxazin-6-yl)pyrimidin-2-amine], the figures for the concentration for half-maximal inhibition (IC50) in assay [3] (setting [5]) and in assay [4] were 193 nM and 0.049 µM, respectively. On to `CC(C)N1CCOc2c(F)cc(-c3nc(Nc4ccc(C5CCNCC5)c(F)c4)ncc3F)cc21` [Compound 18, 5-fluoro-N-(3-fluoro-4-(piperidin-4-yl)phenyl)-4-(8-fluoro-4-isopropyl-3,4-dihydro-2H-benzo[b][1,4]oxazin-6-yl) pyrimidin-2-amine], for which the IC50 in assay [3] (setting [5]) was less than 10 nM; in assay [4] it was 0.019 µM. Take `CC(C)N1CCN(c2ccc(Nc3ncc(F)c(-c4cc(F)c5c(c4)N(C(C)C)CCO5)n3)cc2F)CC1` [Compound 17, 5-fluoro-N-(3-fluoro-4-(4-isopropylpiperazin-1-yl)phenyl)-4-(8-fluoro-4-isopropyl-3,4-dihydro-2H-benzo[b][1,4]oxazin-6-yl)pyrimidin-2-amine]: the 50% inhibitory concentration (IC50) in assay [3] (setting [5]) was 15 nM; in assay [2], 0.008 µM; in assay [4], 0.021 µM. Regarding `CC(C)N1CCOc2c(F)cc(-c3nc(Nc4cccc5c4CCNC5)ncc3F)cc21` [Compound 15, N-(5-fluoro-4-(8-fluoro-4-isopropyl-3,4-dihydro-2H-benzo[b][1,4]oxazin-6-yl)pyrimidin-2-yl)-1,2,3,4-tetrahydroisoquinolin-5-amine], the 50% inhibitory concentration (IC50) in assay [3] (setting [5]) was 114 nM; in assay [4], 0.022 µM. With `CC(C)N1CCOc2c(F)cc(-c3nc(Nc4ccc5c(c4)CCNC5)ncc3F)cc21` [Compound 13, N-(5-fluoro-4-(8-fluoro-4-isopropyl-3,4-dihydro-2H-benzo[b][1,4]oxazin-6-yl)pyrimidin-2-yl)-1,2,3,4-tetrahydroisoquinolin-6-amine], in assay [3] (setting [5]), the 50% inhibitory concentration (IC50) is 3.8 nM. In the case of `COC1CCN(c2ccc(Nc3ncc(F)c(-c4cc(F)c5c(c4)N(C(C)C)CCO5)n3)nc2)CC1` [Compound 843, 5-fluoro-4-(8-fluoro-4-isopropyl-3,4-dihydro-2H-benzo[b][1,4]oxazin-6-yl)-N-(5-(4-methoxypiperidin-1-yl)pyridin-2-yl)pyrimidin-2-amine hydrochloride], the figures for the IC50 in assay [1] and in assay [2] were 0.024 µM and 0.065 µM, respectively. Turning to `CC(C)N1CCc2ccc(Nc3ncc(F)c(-c4cc(F)c5c(c4)N(C(C)C)CCO5)n3)cc2C1` [Compound 19, N-(5-fluoro-4-(8-fluoro-4-isopropyl-3,4-dihydro-2H-benzo[b][1,4]oxazin-6-yl)pyrimidin-2-yl)-2-isopropyl-1,2,3,4-tetrahydroisoquinolin-7-amine], the IC50 is less than 10 nM in assay [3] (setting [6]) and 0.003 µM in assay [4]. In the case of `CC(C)N1CCOc2c(F)cc(-c3nc(Nc4ccc(N5CCNCC5)cc4F)ncc3F)cc21` [Compound 11, 5-fluoro-N-(2-fluoro-4-(piperazin-1-yl)phenyl)-4-(8-fluoro-4-isopropyl-3,4-dihydro-2H-benzo[b][1,4]oxazin-6-yl)pyrimidin-2-amine], the IC50 in assay [3] (setting [5]) was determined as 225 nM; in assay [4] it was 0.25 µM. In the case of `CCN1CCN(Cc2ccc(Nc3ncc(F)c(-c4cc(F)c5c(c4)N(C(=O)C4CC4)CCO5)n3)nc2)CC1` [Compound 8, cyclopropyl(6-(2-((5-((4-ethylpiperazin-1-yl)methyl)pyridin-2-yl)amino)-5-fluoropyrimidin-4-yl)-8-fluoro-2,3-dihydro-4H-benzo[b][1,4]oxazin-4-yl)methanone], in assay [4], the IC50 is more than 5 µM. `CC(C)N1CCOc2c(F)cc(-c3nc(Nc4ccc(C5CCN(C)CC5)c(F)n4)ncc3F)cc21` [Compound 846, 5-fluoro-4-(8-fluoro-4-isopropyl-3,4-dihydro-2H-benzo[b][1,4]oxazin-6-yl)-N-(6-fluoro-5-(1-methylpiperidin-4-yl)pyridin-2-yl)pyrimidin-2-amine]: the IC50 was 0.004 µM in assay [1] and 0.003 µM in assay [2]. `CC(C)N1CCc2c(cccc2Nc2ncc(F)c(-c3cc(F)c4c(c3)N(C(C)C)CCO4)n2)C1` [Compound 20, N-(5-fluoro-4-(8-fluoro-4-isopropyl-3,4-dihydro-2H-benzo[b][1,4]oxazin-6-yl)pyrimidin-2-yl)-2-isopropyl-, 2,3,4-tetrahydroisoquinolin-5-amine]: the results for the half-inhibitory concentration (IC50) in assay [3] (setting [6]) and in assay [4] were 145 nM and 0.017 µM, respectively.

On to `CC(C)N1CCOc2c(F)cc(-c3nc(Nc4ccc(N5CCNCC5)c(F)c4F)ncc3F)cc21` [Compound 28, N-(2,3-difluoro-4-(piperazin-1-yl)phenyl)-5-fluoro-4-(8-fluoro-4-isopropyl-3,4-dihydro-2H-benzo[b][1,4]oxazin-6-yl)pyrimidin-2-amine], for which the IC50 in assay [3] (setting [5]) came to 150 nM; in assay [4], 0.123 µM. With `CC(C)N1CCc2cc(Nc3ncc(F)c(-c4cc(F)c5c(c4)N(C(C)C)CCO5)n3)ccc2C1` [Compound 22, N-(5-fluoro-4-(8-fluoro-4-isopropyl-3,4-dihydro-2H-benzo[b][1,4]oxazin-6-yl)pyrimidin-2-yl)-2-isopropyl-1,2,3,4-tetrahydroisoquinolin-6-amine], the concentration for half-maximal inhibition (IC50) in assay [3] (setting [6]) was less than 10 nM; in assay [4], 0.0065 µM.

For `CC(C)N1CCOc2c(F)cc(-c3nc(Nc4ccc(N5CCNCC5)c(C#N)c4)ncc3F)cc21` [Compound 21, 5-((5-fluoro-4-(8-fluoro-4-isopropyl-3,4-dihydro-2H-benzo[b][1,4]oxazin-6-yl)pyrimidin-2-yl)amino)-2-(piperazin-1-yl) benzonitrile], the IC50 in assay [3] (setting [5]) was less than 10 nM; in assay [4] it was 0.163 µM. Regarding `CC(C)N1CCOc2c(F)cc(-c3nc(Nc4ccn(C5=CCNCC5)c(=O)c4)ncc3F)cc21` [Compound 39, 4-((5-fluoro-4-(8-fluoro-4-isopropyl-3,4-dihydro-2H-benzo[b][1,4]oxazin-6-yl)pyrimidin-2-yl)amino)-1′,2′,3′,6′-tetrahydro-2H-[1,4′-bipyridin]-2-one], the IC50 in assay [3] (setting [6]) was found to be 45 nM; in assay [4], 0.033 µM.
